Results: patent US20240132480A1, “INHIBITORS OF MYCOBACTERIUM TUBERCULOSIS LIPOAMIDE DEHYDROGENASE” (Cornell University, priority 2021, published 2024)
Read-outs that look alike come from different tables or passages of the source.

Experiments:
[1] = microsomes
Mtb Lpd = Mtb Lpd (Mycobacterium tuberculosis (strain ATCC 25618 / H37Rv), UniProt P9WHH9); type: biochemical
[2] = 30 min preincubation, read-out: LPD IC50 (μM) w/ 30 min preincubation

Cc1cc2c(c(S(=O)(=O)N(C)CC(=O)Nc3ccc(N4CCCCC4)c(C)c3)c1)CC=C2 [Example 11]
Human Liver Microsome Stability [1]: 105 µL/min/mg | IC50 (Mtb Lpd; read-out: LPD IC50): 0.0341 µM

Cc1cc(S(=O)(=O)N2CC[C@H]2C(=O)Nc2ccc3ncccc3c2)c2[nH]ncc2c1 [Example 87]
Human Liver Microsome Stability [1]: 111 µL/min/mg | IC50 (Mtb Lpd; read-out: LPD IC50): 0.035 µM

Cc1cc(S(=O)(=O)N2CC[C@H]2C(=O)Nc2ccc3c(c2)OCCO3)c2[nH]ncc2c1 [Example 39]
Human Liver Microsome Stability [1]: 76 µL/min/mg | IC50 (Mtb Lpd; read-out: LPD IC50): 0.0237 µM

COc1ccc(NC(=O)CN(C)S(=O)(=O)c2cc(C)cc3c(C)n[nH]c23)cc1C [Example 9]
Human Liver Microsome Stability [1]: >768 µL/min/mg | IC50 (Mtb Lpd; read-out: LPD IC50): 0.0273 µM

Cc1cc(S(=O)(=O)N2CC[C@H]2C(=O)NCC#N)c2[nH]ncc2c1 [Example 202]
Human Liver Microsome Stability [1]: 4 µL/min/mg | IC50 (Mtb Lpd; read-out: LPD IC50): 0.323 µM

Cc1cc(S(=O)(=O)N(C)CC(=O)Nc2ccc(N3CCOCC3)c(Cl)c2)c2[nH]c(C#N)cc2c1 [Example 198]
Human Liver Microsome Stability [1]: 137 µL/min/mg | IC50 (Mtb Lpd; read-out: LPD IC50): 0.087 µM

CCN(CC(=O)Nc1ccc2c(c1)OCCN2C(C)(C)CO)S(=O)(=O)c1cc(C)cc2cn[nH]c12 [Example 145, 2-((N-ethyl-5-methyl-1H-indazole)-7-sulfonamido)-N-(4-(1-hydroxy-2-methylpropan-2-yl)-3,4-dihydro-2H-benzo[b][1,4]oxazin-7-yl)acetamide]
Human Liver Microsome Stability [1]: 92 µL/min/mg | IC50 (Mtb Lpd; read-out: LPD IC50): 0.039 µM

O=C(Nc1ccc(N2CCOCC2)c(Cl)c1)[C@@H]1CCN1S(=O)(=O)c1cc(C(F)F)cc2cn[nH]c12 [Example 190, (S)—N-(3-chloro-4-morpholinophenyl)-1-((5-(difluoromethyl)-1H-indazol-7-yl)sulfonyl)azetidine-2-carboxamide]
Human Liver Microsome Stability [1]: 86 µL/min/mg | IC50 (Mtb Lpd; read-out: LPD IC50): 0.111 µM

Cc1cc(S(=O)(=O)N(C)CC(=O)Nc2ccc3c(c2)OCCN3C)c2[nH]nc(C)c2c1 [Example 92]
Human Liver Microsome Stability [1]: 19 µL/min/mg

CC#CCNC(=O)CN(C)S(=O)(=O)c1cc(C)cc2cn[nH]c12 [Example 204]
Human Liver Microsome Stability [1]: 19 µL/min/mg | IC50 (Mtb Lpd; [2]): 0.024 µM | IC50 (Mtb Lpd; read-out: LPD IC50): 0.045 µM

Cc1cc(S(=O)(=O)N(C)CC(=O)Nc2ccc3c(c2)N(C2COC2)CCO3)c2[nH]c(C#N)cc2c1 [Example 208]
Human Liver Microsome Stability [1]: 341 µL/min/mg | IC50 (Mtb Lpd; [2]): 0.015 µM

CCN(CC(=O)Nc1ccc(OC)c(Cl)c1)S(=O)(=O)c1cc(C)cc2cn[nH]c12 [Example 15, N-(3-chloro-4-methoxyphenyl)-2-((N-ethyl-5-methyl-1H-indazole)-7-sulfonamido)acetamide]
Human Liver Microsome Stability [1]: 528 µL/min/mg | IC50 (Mtb Lpd; read-out: LPD IC50): 0.0417 µM

CN(CC(=O)Nc1ccn(C)c(=O)c1)S(=O)(=O)c1cc(Cl)cc2c(F)n[nH]c12 [Example 150]
Human Liver Microsome Stability [1]: 1 µL/min/mg | IC50 (Mtb Lpd; read-out: LPD IC50): 0.046 µM

CC#CC(C)(C)NC(=O)CN(C)S(=O)(=O)c1cc(C)cc2cc(C#N)[nH]c12 [Example 229]
Human Liver Microsome Stability [1]: 160 µL/min/mg | IC50 (Mtb Lpd; [2]): 0.031 µM

Cc1cc(S(=O)(=O)N2CC[C@H]2C(=O)Nc2ccc(OCCN(C)C)c(Cl)c2)c2[nH]ncc2c1 [Example 168]
Human Liver Microsome Stability [1]: 1 µL/min/mg | IC50 (Mtb Lpd; read-out: LPD IC50): 0.143 µM

COc1ccc(NC(=O)[C@@H]2CCN2S(=O)(=O)c2cc(C)cc3cn[nH]c23)cc1Cl [Example 74]
Human Liver Microsome Stability [1]: 325 µL/min/mg | IC50 (Mtb Lpd; read-out: LPD IC50): 0.0488 µM

Cc1cc(S(=O)(=O)N2CC[C@H]2C(=O)Nc2ccc3c(c2)OCCN3C(C)(C)CO)c2[nH]ncc2c1 [Example 147]
Human Liver Microsome Stability [1]: 212 µL/min/mg | IC50 (Mtb Lpd; read-out: LPD IC50): 0.037 µM

Cc1cc(S(=O)(=O)N2CC[C@H]2C(=O)Nc2ccc3c(c2)OCCN3C2COC2)c2[nH]c(C#N)cc2c1 [Example 206, (S)-1-((2-cyano-5-methyl-1H-indol-7-yl)sulfonyl)-N-(4-(oxetan-3-yl)-3,4-dihydro-2H-benzo[b][1,4]oxazin-7-yl)azetidine-2-carboxamide]
Human Liver Microsome Stability [1]: 111 µL/min/mg | IC50 (Mtb Lpd; [2]): 0.022 µM | IC50 (Mtb Lpd; read-out: LPD IC50): 0.081 µM

Cc1cc(S(=O)(=O)N2CC[C@H]2C(=O)Nc2ccc3c(c2)OCCN3C2CCOCC2)c2n[nH]cc2c1 [Example 144]
Human Liver Microsome Stability [1]: 166 µL/min/mg | IC50 (Mtb Lpd; read-out: LPD IC50): 0.0379 µM

CCN(CC(=O)Nc1ccc2c(c1)OCCN2C1CCOCC1)S(=O)(=O)c1cc(C)cc2c[nH]nc12 [Example 156]
Human Liver Microsome Stability [1]: 58 µL/min/mg | IC50 (Mtb Lpd; read-out: LPD IC50): 0.0274 µM

Cc1cc(S(=O)(=O)N(C)CC(=O)Nc2ccc3c(c2)OCCN3C(C)(C)CO)c2[nH]ncc2c1 [Example 105]
Human Liver Microsome Stability [1]: 56 µL/min/mg | IC50 (Mtb Lpd; read-out: LPD IC50): 0.027 µM

O=C(Nc1ccc2c(c1)OCCN2C1COC1)[C@@H]1CCN1S(=O)(=O)c1cc(C(F)F)cc2cn[nH]c12 [Example 180, (S)-1-((5-(difluoromethyl)-1H-indazol-7-yl)sulfonyl)-N-(4-(oxetan-3-yl)-3,4-dihydro-2H-benzo[b][1,4]oxazin-7-yl)azetidine-2-carboxamide]
Human Liver Microsome Stability [1]: 61 µL/min/mg

COCc1n[nH]c2c(S(=O)(=O)N(C)CC(=O)Nc3ccc(OC)c(C)c3)cc(C)cc12 [Example 28]
Human Liver Microsome Stability [1]: >768 µL/min/mg | IC50 (Mtb Lpd; read-out: LPD IC50): 3640 µM

O=C(Nc1ccc2c(c1)OCCN2C1CCOCC1)[C@@H]1CCN1S(=O)(=O)c1cc(C(F)F)cc2c(F)n[nH]c12 [Example 185]
Human Liver Microsome Stability [1]: 114 µL/min/mg | IC50 (Mtb Lpd; read-out: LPD IC50): 0.183 µM

CN(CC(=O)Nc1ccn(C)c(=O)c1)S(=O)(=O)c1cc(F)cc2cn[nH]c12 [Example 93]
Human Liver Microsome Stability [1]: 6 µL/min/mg

Cc1cc(S(=O)(=O)N2CC[C@H]2C(=O)NCC#Cc2ccccc2)c2[nH]ncc2c1 [Example 205]
Human Liver Microsome Stability [1]: 205 µL/min/mg | IC50 (Mtb Lpd; read-out: LPD IC50): 0.154 µM

CC(=O)N1CCOc2cc(NC(=O)CN(C)S(=O)(=O)c3cc(C)cc4cn[nH]c34)ccc21 [Example 90]
Human Liver Microsome Stability [1]: 18 µL/min/mg

COc1ccc(NC(=O)CN(C)S(=O)(=O)c2cc(C)cc3cc(C#N)[nH]c23)cc1Cl [Example 211, N-(3-chloro-4-methoxyphenyl)-2-((2-cyano-N,5-dimethyl-1H-indole)-7-sulfonamido)acetamide]
Human Liver Microsome Stability [1]: 358 µL/min/mg | IC50 (Mtb Lpd; [2]): 0.02 µM

Cc1cc(S(=O)(=O)N2CC[C@@H](C(=O)Nc3ccc4c(c3)OCCN4C3COC3)C2)c2[nH]ncc2c1 [Example 123]
Human Liver Microsome Stability [1]: 23 µL/min/mg | IC50 (Mtb Lpd; read-out: LPD IC50): 0.0286 µM

Cc1cc(S(=O)(=O)N2CC[C@H]2C(=O)Nc2ccc3c(c2)OCCN3C2COC2)c2n[nH]cc2c1 [Example 143]
Human Liver Microsome Stability [1]: 84 µL/min/mg | IC50 (Mtb Lpd; read-out: LPD IC50): 0.0362 µM

Cc1cc(S(=O)(=O)N(C)CC(=O)Nc2ccn3cccc3c2)c2[nH]ncc2c1 [Example 46, 2-((N,5-dimethyl-1H-indazole)-7-sulfonamido)-N-(imidazo[1,5-a]pyridin-7-yl)acetamide]
Human Liver Microsome Stability [1]: 4 µL/min/mg | IC50 (Mtb Lpd; read-out: LPD IC50): 0.0067 µM

CCN(CC(=O)Nc1ccc2c(c1)OCCN2C)S(=O)(=O)c1cc(C)cc2cn[nH]c12 [Example 88]
Human Liver Microsome Stability [1]: 46 µL/min/mg

Cc1cc(S(=O)(=O)N(C)CC(=O)NCc2ccccc2)c2n[nH]cc2c1 [Example 49]
Human Liver Microsome Stability [1]: 43 µL/min/mg | IC50 (Mtb Lpd; read-out: LPD IC50): 0.031 µM

COc1ccc(NC(=O)CN(C)S(=O)(=O)c2cc(C(F)F)cc3cn[nH]c23)cc1C [Example 8]
Human Liver Microsome Stability [1]: 534 µL/min/mg | IC50 (Mtb Lpd; read-out: LPD IC50): 0.0263 µM

Cc1cc(S(=O)(=O)N(C)CC(=O)Nc2ccc3ncccc3c2)c2n[nH]cc2c1 [Example 52]
Human Liver Microsome Stability [1]: 113 µL/min/mg | IC50 (Mtb Lpd; read-out: LPD IC50): 0.0218 µM

Cc1cc(S(=O)(=O)N2CC[C@H]2C(=O)Nc2ccn(C)c(=O)c2)c2[nH]nc(Cl)c2c1 [Example 178]
Human Liver Microsome Stability [1]: -13 µL/min/mg | IC50 (Mtb Lpd; read-out: LPD IC50): 0.211 µM

Cc1cc(S(=O)(=O)N(C)CC(=O)Nc2ccc3c(c2)OCCN3C2COC2)c2n[nH]c(F)c2c1 [Example 140]
Human Liver Microsome Stability [1]: 66 µL/min/mg | IC50 (Mtb Lpd; read-out: LPD IC50): 0.0278 µM

Cn1ccc(NC(=O)[C@@H]2CCN2S(=O)(=O)c2cc(Br)cc3c(F)n[nH]c23)cc1=O [Example 151, (S)-1-((5-bromo-3-fluoro-1H-indazol-7-yl)sulfonyl)-N-(1-methyl-2-oxo-1,2-dihydropyridin-4-yl)azetidine-2-carboxamide]
Human Liver Microsome Stability [1]: -4 µL/min/mg | IC50 (Mtb Lpd; read-out: LPD IC50): 0.18 µM

CNCc1n[nH]c2c(S(=O)(=O)N(C)CC(=O)Cc3ccn(C)c(=O)c3)cc(C)cc12 [Example 44]
Human Liver Microsome Stability [1]: -2 µL/min/mg | IC50 (Mtb Lpd; read-out: LPD IC50): 0.13 µM

Cc1cc(S(=O)(=O)N(C)CC(=O)Nc2ccc(N3CCOCC3)c(C)c2)c2[nH]ncc2c1 [Example 32]
Human Liver Microsome Stability [1]: 234 µL/min/mg | IC50 (Mtb Lpd; read-out: LPD IC50): 0.0043 µM

Cc1cc(S(=O)(=O)N(C)CC(=O)Nc2ccc3c(c2)OC(C)(C)C(=O)N3C)c2n[nH]cc2c1 [Example 159]
Human Liver Microsome Stability [1]: 67 µL/min/mg | IC50 (Mtb Lpd; read-out: LPD IC50): 0.019 µM

Cc1cc(NC(=O)CN(C)S(=O)(=O)c2c(C)c(C)cc3cn[nH]c23)ccc1N1CCOCC1 [Example 19]
Human Liver Microsome Stability [1]: 253 µL/min/mg | IC50 (Mtb Lpd; read-out: LPD IC50): 0.0469 µM

Cc1cc(S(=O)(=O)N(C)CC(=O)Nc2ccn(C3COC3)c(=O)c2)c2[nH]ncc2c1 [Example 99]
Human Liver Microsome Stability [1]: 17 µL/min/mg | IC50 (Mtb Lpd; read-out: LPD IC50): 0.056 µM

COc1ccc(NC(=O)CN(C)S(=O)(=O)c2cc(C)cc3c2NC(=O)C3)cc1Cl [Example 2, N-(3-chloro-4-methoxyphenyl)-2-((N,5-dimethyl-2-oxoindoline)-7-sulfonamido)acetamide]
Human Liver Microsome Stability [1]: 490 µL/min/mg

CC#CCNC(=O)CN(C)S(=O)(=O)c1cc(C)cc2cc(C#N)[nH]c12 [Example 210]
Human Liver Microsome Stability [1]: 39 µL/min/mg

Cc1cc(S(=O)(=O)N(C)CC(=O)Nc2ccn(C)c(=O)c2)c2[nH]ncc2c1 [Example 6]
Human Liver Microsome Stability [1]: -11 µL/min/mg

Cc1cc(S(=O)(=O)N(C)CC(=O)Nc2nc3c(s2)NCCC3)c2n[nH]cc2c1 [Example 154, 2-((N,5-dimethyl-1H-indazole)-7-sulfonamido)-N-(4,5,6,7-tetrahydrothiazolo[5,4-b]250yclopro-2-yl)acetamide]
IC50 (Mtb Lpd; read-out: LPD IC50): 0.05 µM

C#CCNC(=O)CN(C)S(=O)(=O)c1cc(C)cc2cn[nH]c12 [Example 107]
IC50 (Mtb Lpd; read-out: LPD IC50): 0.047 µM
